Test results: patent US20120198764A1, “METHOD FOR REDUCING PHYTOTOXICITY” (Ishihara Sangyo Kaisha, Ltd., priority 2009, published 2012)
Where two headings read alike, the source gives them in different places.

Assays:
Settings in all cases: in vivo
[1] = tested on: bentgrass (breed: pencross); experiment: Test Example 7: pot test, copper phthalocyanine or Prussian Blue applied 1 day before flazasulfuron
Method: (§1) On 13th day after the treatment with flazasulfuron, the state of growth of bentgrass was visually observed and evaluated in accordance with growth inhibition rate (%)=0 (equivalent to the non-treated area) to 100 (complete kill), and thereby the results shown in Table 1 were obtained. Further, the test was carried out in duplicate.
(§2) 1/1,000,000 ha pots were prepared, as the present invention area, comparative area and non-treated area, soil was put into them, and bentgrass (breed: pencross) in sod state was planted thereon. After the bentgrass root-took on soil, a spray liquid was prepared by diluting copper phthalocyanine or Prussian Blue with water to 1,000 times or 500 times, and the bentgrass in the present invention area was subjected to foliar treatment with the spray liquid in an amount of about 1,000 L/ha by a small spray gun. After 1 day, a spray liquid was prepared by diluting a predetermined amount (corresponding to flazasulfuron: 5 g a.i./ha) of SHIBAGEN DF (tradename, the same as in Test Example 1) with water containing 0.02 wt % of Kusa-rino (tradename, the same as in Test Example 1), and the bentgrass in the present invention area and comparative area were subjected to foliar treatment with the spray liquid in an amount of about 2,000 L/ha by a small spray gun.
On 8th day after the treatment with flazasulfuron, the state of growth of bentgrass was evaluated in the same manner as in Test Example 1, and thereby the results shown in Table7 were obtained. Further, the test was carried out in duplicate.

[2] = tested on: bentgrass (breed: pencross); experiment: Test Example 1: pot test, TurfGreen BG applied 7 days before flazasulfuron
Method: 1/300,000 ha pots were prepared, as the present invention area, comparative area and non-treated area, soil was put into them, and bentgrass (breed: pencross) in sod state (state of mat) was planted thereon. With respect to the bentgrass in the present invention area, after the bentgrass root-took on soil, a spray liquid was prepared by diluting a colorant for turfgrass (tradename: TurfGreen BG (containing chlorinated copper phthalocyanine), manufactured by Nisso Green Co., Ltd.) with water to 50 times, and the bentgrass was subjected to foliar treatment with the spray liquid in an amount of about 2,000 L/ha by a small spray gun. […]
On 13th day after the treatment with flazasulfuron, the state of growth of bentgrass was visually observed and evaluated in accordance with growth inhibition rate (%)=0 (equivalent to the non-treated area) to 100 (complete kill), and thereby the results shown in Table 1 were obtained. […]

[3] = tested on: bentgrass (breed: pencross)
Method: as §1
as §2, with “Pigment Green 7” for “copper phthalocyanine or Prussian Blue”, “125” for “1,000 times or 500”, “10” for “5”
On 7th day after the treatment with flazasulfuron, the state of growth of bentgrass was evaluated in the same manner as in Test Example 1, and thereby the results shown in Table 9 were obtained. Further, the test was carried out in triplicate.

[4] = tested on: bentgrass (breed: pencross); experiment: Test Example 4: ground plot test, TurfGreen BG applied 7 days after flazasulfuron
Method: as §1
Among bentgrass (breed: pencross) planted on ground in sod state in 0.5 m^2 (5.0×10^−5 ha, 1 m×0.5 m) of the present invention area, comparative area and non-treated area, the bentgrasses in the present invention area and comparative area were subjected to foliar treatment with a spray liquid prepared by diluting a predetermined amount (corresponding to flazasulfuron: 6.25 g a.i./ha) of SHIBAGEN DF (tradename, the same as in Test Example 1) with water containing 0.02 wt % of Kusa-rino (tradename, the same as in Test Example 1) in an amount of about 2,000 L/ha by a hand portable pump sprayer. […]
Prior to the treatment with TurfGreen BG or on 7th day after the treatment with TurfGreen BG, the state of growth of bentgrass was evaluated in the same manner as in Test Example 1, and thereby the results shown in Table 4 were obtained. […]

[5] = tested on: bentgrass (breed: pencross); experiment: Test Example 3: ground plot test, TurfGreen BG applied 1 or 3 days before flazasulfuron
Method: as §1
(§3) Among bentgrass (breed: pencross) planted in sod state on ground in 0.5 m^2 (5.0×10^−5 ha, 1 m×0.5 m) in the present invention area A, the present invention area B, comparative area and non-treated area, the bentgrass in the present invention area A, the present invention area B and comparative area were subjected to foliar treatment with a spray liquid prepared by diluting a predetermined amount (corresponding to flazasulfuron: 6.25 g a.i./ha) of SHIBAGEN DF (tradename, the same as in Test Example 1) with water containing 0.02 wt % of Kusa-rino (tradename, the same as in Test Example 1) in an amount of about 2,000 L/ha by a hand portable pump sprayer. […]
On 14th day after the treatment with flazasulfuron, the state of growth of the bentgrass was evaluated in the same manner as in Test Example 1, and thereby the results shown in Table 3 were obtained. […]

[6] = tested on: bentgrass (breed: pencross); experiment: Test Example 2: pot test, TurfGreen BG applied 1 day after flazasulfuron
Method: as §1
as §2, with “With respect” for “After the bentgrass root-took on soil, a spray liquid was prepared by diluting copper phthalocyanine or Prussian Blue with water”, “to” for “to 1,000 times or 500 times, and”, “and comparative area, after” for “was subjected to foliar treatment with”, “bentgrass root-took on soil,” for “spray liquid in an amount of about 1,000 L/ha by a small spray gun. After 1 day,”, “gun. […]” for “gun.”
On 7th day after the treatment with TurfGreen BG, the state of growth of bentgrass was evaluated in the same manner as in Test Example 1, and thereby the results shown in Table 2 were obtained. […]

[7] = tested on: bentgrass (breed: pencross); experiment: Test Example 5: pot test, colorants applied 1 day before flazasulfuron
Method: as §1
1/1,000,000 ha pots were prepared, as the present invention area, comparative area and non-treated area, soil was put into them, and bentgrass (breed: pencross) in sod state was planted thereon. After the bentgrass root-took on soil, a spray liquid was prepared by diluting a colorant for turfgrass (tradename: Green Way (pigment containing metal ions), manufactured by Otsuka Chemical Co., Ltd.), (tradename: Green Way Sayaka (pigment containing metal ions), manufactured by Otsuka Chemical Co., Ltd.) or (tradename: Clear Green L (copper phthalocyanine), manufactured by Ohkawaya Co., Ltd.) with water to 50 times, and the bentgrass in the present invention area was subjected to foliar treatment with the spray liquid in an amount of about 2,000 L/ha by a small spray gun. […]
On 7th day after the treatment with flazasulfuron, the state of growth of bentgrass was evaluated in the same manner as in Test Example 1, and thereby the results shown in Table 5 were obtained. […]

[8] = tested on: bentgrass (breed: pencross); experiment: Test Example 6: ground plot test, FULLGREEN S applied 1 day before or after flazasulfuron
Method: as §1
as §3, with “planted on ground” for “planted”, “state” for “state on ground”, “m) of” for “m) in”, “a small spray gun.” for “a hand portable pump sprayer.”
On 7th day after the treatment with flazasulfuron, the state of growth of bentgrass was evaluated in the same manner as in Test Example 1, and thereby the results shown in Table 6 were obtained. […]

[9] = tested on: bentgrass (breed: pencross); experiment: Test Example 8: pot test, Prussian Blue applied 5 days after flazasulfuron
Method: as §1
as §2, with “soil,” for “soil, a spray liquid was prepared by diluting copper phthalocyanine or Prussian Blue with water to 1,000 times or 500 times, and the bentgrass in the present invention area was subjected to foliar treatment with the spray liquid in an amount of about 1,000 L/ha by a small spray gun. After 1 day,”, “gun. […]” for “gun.”
On 7th day after the treatment with Prussian Blue, the state of growth of bentgrass was evaluated in the same manner as in Test Example 1, and thereby the results shown in Table 8 were obtained. […]

[Cu+2].c1ccc2c(c1)-c1nc-2nc2[n-]c(nc3nc(nc4[n-]c(n1)c1ccccc41)-c1ccccc1-3)c1ccccc21 [copper phthalocyanine]
State of growth of bentgrass, Growth inhibition rate (%) [1]: 40%
phytotoxicity due to flazasulfuron, compared with comparative area [1]: reduced

COc1cc(OC)nc(NC(=O)NS(=O)(=O)c2ncccc2C(F)(F)F)n1 [flazasulfuron]
State of growth of bentgrass, Growth inhibition rate (%) [1]: 55%
State of growth of bentgrass, Growth inhibition rate (%) [2]: 50%
State of growth of bentgrass, Growth inhibition rate (%) [3]: 56%
State of growth of bentgrass, Growth inhibition rate (%) [4]: 30%
State of growth of bentgrass, Growth inhibition rate (%) [5]: 40%
State of growth of bentgrass, Growth inhibition rate (%) [6]: 48%
State of growth of bentgrass, Growth inhibition rate (%) [7]: 53%
State of growth of bentgrass, Growth inhibition rate (%) [8]: 31%
State of growth of bentgrass, Growth inhibition rate (%) [9]: 54%

Pigment Green 7
State of growth of bentgrass, Growth inhibition rate (%) [3]: 50%
phytotoxicity due to flazasulfuron, compared with comparative area [3]: reduced
